Source: article PMC9503009, “Determining Ligand and Ion-Induced Conformational Changes in Serotonin Transporter with Its Fluorescent Substrates” (International Journal of Molecular Sciences, 2022)
Read-outs that look alike come from different tables or passages of the source.

Legend:
Format in all cases: cell-based
SERT Y107C/C109A = target: T1, SERT Y107C/C109A (Rattus norvegicus, UniProt P31652, C109A/Y107C); test: MTSET inhibition of APP+ uptake in live cells (extracellular pathway cysteine accessibility); conditions: Y107C/C109A
T1 construct: expressed in transfected cells
Description: (§1) Figure 3 Reactivity of the extracellular cysteine mutants with MTSET. (A) MTSET concentration-dependent inhibition of APP^+ uptake. The cells stably expressing C109A, Y107C/C109C, or S404C/C109A were incubated for 15 min with indicated concentrations of MTSET. The MTSET concentration giving half-maximal inhibition of APP^+ accumulation in the cells was used to calculate inactivation rate constants as plotted in (B). […] Representative images of APP^+ uptake by C109A, Y107C/C109A, or S404C/C109A under various MTSET concentrations were shown in Supplemental Figure S1. […] (B) Rate constants of MTSET inhibition of APP^+ uptake. At the half-maximal concentration, the half-time is the assay time (15 min) and the first-order rate constant is 7.7 × 10^−4 s^−1. This rate constant was divided by the half maximal MTSET concentration from (A) to obtain the pseudo first-order modification rate constant. Error bars represent SEM of three experiments.
(A) MTSET concentration-dependent inhibition of APP^+ uptake. […] After washing to remove excess MTSET and ligands, APP^+ uptake was measured as described under “Materials and Methods”. […] (B) Rate constants of MTSET inhibition of APP^+ uptake. The IC50 values of MTSET inhibition were used to calculate rate constants as described under “Materials and Methods”. Error bars represent SEM from three experiments.
(§2) The cells stably expressing Y107C/C109A or S404C/C109A were preincubated with indicated ligands and MTSET at a concentration of 0.01 mM for Y107C/C109A or 0.002 mM for S404C/C109A at 22 °C for 15 min, respectively. At the end of this incubation, cells were washed free of MTSET and ligands into KRH buffer containing NaCl and APP^+. APP^+ uptake was measured as described under “Materials and Methods”. Error bars represent SEM from three experiments. Asterisks and hashtags indicate statistically significant changes (p < 0.05) in the accumulated APP^+ fluorescence compared with the corresponding control (MTSET alone).
The cells stably expressing Y107C/C109A were treated at 22 °C for 15 min with indicated concentrations of MTSET in the absence or presence of 10 μM vilazodone. After washing to remove excess MTSET and vilazodone, APP^+ uptake was measured as described under “Materials and Methods”. […] The IC50 values of MTSET inhibition were used to calculate rate constants as described under “Materials and Method”. Error bars represent SEM from three experiments. […] After washing to remove excess MTSEA and vilazodone, ASP^+ binding was measured as described under “Materials and Methods”. […] The IC50 values of MTSEA inhibition of ASP^+ binding were converted to rate constants.

SERT C109A = target: T2, SERT C109A (Rattus norvegicus, UniProt P31652, C109A); test: as above
T2 construct: expressed in transfected cells
Description: Figure 3 Reactivity of the extracellular cysteine mutants with MTSET. (A) MTSET concentration-dependent inhibition of APP^+ uptake. The cells stably expressing C109A, Y107C/C109C, or S404C/C109A were incubated for 15 min with indicated concentrations of MTSET. The MTSET concentration giving half-maximal inhibition of APP^+ accumulation in the cells was used to calculate inactivation rate constants as plotted in (B). In this experiment, half-maximal MTSET concentrations were […] for C109A, 0.011 ± 0.006 mM for Y107C/C109A, and 0.0025 ± 0.0008 mM for S404C/C109A, respectively. Representative images of APP^+ uptake by C109A, Y107C/C109A, or S404C/C109A under various MTSET concentrations were shown in Supplemental Figure S1. The experiment was repeated twice with similar results. (B) Rate constants of MTSET inhibition of APP^+ uptake. At the half-maximal concentration, the half-time is the assay time (15 min) and the first-order rate constant is 7.7 × 10^−4 s^−1. […]
Accessibility of the cysteine residues in the extracellular pathway was measured by reactivity of Y107C/C109A and S404C/C109A mutants with MTSET. […] The extent of APP^+ accumulated in the cells was determined by confocal imaging analysis in the live cells. […] The MTSET concentration causing half-maximal inactivation was determined and used to calculate the rate constant for cysteine modification, as described previously.

SERT S277C/X5C = target: T3, SERT S277C/X5C (Rattus norvegicus, UniProt P31652, C109A/C15A/C21A/C357I/C622A/S277C); test: MTS reagent inhibition of ASP+ binding in digitonin-permeabilized cells (cytoplasmic pathway cysteine accessibility); conditions: S277C/X5C, 25 μg/mL digitonin
T3 construct: expressed in transfected cells
Description: After 3 × rapid washing with KRH buffer, APP^+ or ASP^+ accumulation was measured as described under “Materials and Methods”. […] These representative images were parallelly acquired from one experiment. […] After 3 × washing, ASP^+ binding to the cell membrane was measured as described under “Materials and Methods”. […] (D) The effects of MTSET on ASP^+ binding of S277C/X5C and X5C. […] After 3 × rapid washing, ASP^+ binding was measured as described under “Materials and Methods”.
After washing to remove excess MTSEA and ligands, ASP^+ binding was measured as described under “Materials and Methods”. […] The IC50 values of MTSEA inhibition of ASP^+ binding were converted to rate constants.
The cells stably expressing Y107C/C109A were treated at 22 °C for 15 min with indicated concentrations of MTSET in the absence or presence of 10 μM vilazodone. After washing to remove excess MTSET and vilazodone, APP^+ uptake was measured as described under “Materials and Methods”. […] The IC50 values of MTSET inhibition were used to calculate rate constants as described under “Materials and Method”. Error bars represent SEM from three experiments. […] After washing to remove excess MTSEA and vilazodone, ASP^+ binding was measured as described under “Materials and Methods”. […] The IC50 values of MTSEA inhibition of ASP^+ binding were converted to rate constants. […]
For cytoplasmic pathway accessibility, measurements were performed with the cells stably expressing S277C/X5C. […] The cells, then, were washed free of unreacted MTSEA and ligands, ASP^+ binding was measured by adding 500 μL KRH buffer containing 10 μM ASP^+ and incubating at 22 °C for 5 min. Excess ASP^+ was removed by 3 × rapid washing with KRH buffer and ASP^+ fluorescence retained in the cell membrane was measured by confocal imaging analysis in the permeabilized cells. […] The MTSEA IC50 value was determined and used to calculate the rate constant for S277C/X5C modification.

SERT S404C/C109A = target: T4, SERT S404C/C109A (Rattus norvegicus, UniProt P31652, C109A/S404C); test: MTSET inhibition of APP+ uptake in live cells (extracellular pathway cysteine accessibility); conditions: for IC50: S404C/C109A
T4 construct: expressed in transfected cells
Description: as §1, §2
Accessibility of the cysteine residues in the extracellular pathway was measured by reactivity of Y107C/C109A and S404C/C109A mutants with MTSET. The cells stably expressing Y107C/C109A or S404C/C109A were incubated with MTSET over a range of concentrations in HEPES buffer containing indicated ligands or ions at 22 °C for 15 min. After excess MTSET and ligands were removed by rapid 3 × washing with the same buffer, the cells were then incubated with APP^+ at a final concentration of 2 μM in KRH buffer at 22 °C for another 5 min. The extent of APP^+ accumulated in the cells was determined by confocal imaging analysis in the live cells. To measure the effects of antidepressants, substrate 5-HT, or other ligands such as 5-HTP or tryptophan, where added, was present at 10 μM. To measure the effects of ions, 150 mM […] (NMDG) gluconate, and NMDG chloride, sodium isethionate, or NaCl was used as indicated. These measurements of reactivity depend on the ability of MTSET to inactivate APP^+ transport activity by an allosteric mechanism. The MTSET concentration causing half-maximal inactivation was determined and used to calculate the rate constant for cysteine modification, as described previously.

[1] = 15 min incubation with MTSET, read-out: half-maximal MTSET concentration for inhibition of APP+ accumulation
[2] = constant concentration used in simplified assay, read-out: MTSET IC50 value (APP+ uptake inhibition)

- IC50 (SERT Y107C/C109A; [1]): 11 ± 6 µM
- IC50 (SERT Y107C/C109A; [2]): 10 µM
- IC50 (SERT C109A; C109A, 15 min incubation with MTSET, read-out: half-maximal MTSET concentration for inhibition of APP+ accumulation): > 1000 µM
- effect on transport activity (APP+ uptake) (SERT C109A; background construct C109A, MTSET 0.1 μM to 1 mM): little effect
- accessibility of Cys277 to MTSET (SERT S277C/X5C): not accessible
- IC50 (SERT S404C/C109A; [1]): 2.5 ± 0.8 µM
- IC50 (SERT S404C/C109A; [2]): 2 µM
- reactivity with MTSET of S404C/C109A relative to Y107C/C109A (faster by) (SERT S404C/C109A; pseudo first-order rate constants): 4-5 fold
Compound: C[N+](C)(C)CCSS(C)(=O)=O.[Br-] [MTSET, 2-(Trimethylammonium) ethyl methanethiosulfonate bromide]
